# System: retinal pigment epithelium (RPE) cells
# Assay: Circadian patterns of VEGF secretion by perfused RPE monolayers (ELISA, Cosinor fit)
# Type: cell-based
# Settings: alternating 12-hour intervals, conclusion in words
# Procedure: The purpose of this study was to test whether retinal pigment epithelium (RPE) cells express vascular endothelial growth factor (VEGF) in a circadian manner. We tested the hypothesis that 12 hour alternating intervals of dopamine then melatonin combined with L-DOPA would induce RPE cells into a circadian rhythm that controlled VEGF expression. Methods: RPE monolayers were produced on snap-well filters, which were maintained in static culture conditions for at least six months, during which time they became pigmented and well differentiated. […] A baseline of VEGF secretion was established over a 3-week period. After the baseline was established, the cells were perfused with media containing 1 ? M dopamine for 12 hours, then media containing 1 ? M melatonin plus 1 ? M L-DOPA for the next 12 hours. […] Initiation of the next drug dilutes the previous over 12 hours while simultaneously ramping up the new drug. Cells were maintained in this circadian rhythm for at least three cycles. […] The amount of VEGF was plotted against the time of perfusion and fitted using the Cosinor method to find a length of circadian cycle and corresponding p-value for statistical analysis.
row,Compound,effect on RPE VEGF secretion
1,"N[C@@H](Cc1ccc(O)c(O)c1)C(=O)O [L-DOPA, 2-amino-3-(3,4-dihydroxyphenyl)propanoic acid]",antagonize dopamine effects
2,NCCc1ccc(O)c(O)c1 [dopamine],increase RPE VEGF secretion
3,"COc1ccc2[nH]cc(CCNC(C)=O)c2c1 [melatonin, Melatonin]",antagonize dopamine effects
